Measured values as given in patent publication US10294230B2, “3,3-difluoropiperidine carbamate heterocyclic compounds as NR2B NMDA receptor antagonists” (Rugen Holdings (Cayman) Limited, priority 2015, dated 2019).

Columns and labels:
hERG channel = hERG channel (Homo sapiens (Human), UniProt Q12809); experiment: hERG channel inhibition, whole cell patch clamp in HEK293 cells; format: cell-based
Description: The assay was performed on hERG channel stably expressed in HEK293 cells. The cells were cultured at 37° C. in a humidified CO2 incubator in the growth medium consisting of DMEM, 10% fetal bovine serum and antibiotics. Prior to the assay, the cells were seeded onto a 12 mm PDL-coated glass coverslip and cultured in a 35 mm Petri dish. After 16 to 40 hr culture, the cover slip was transferred into the chamber of OctaFlow perfusion system (ALA Instrument) and under a constant flow of extracellular solution (140 mM NaCl, 4 mM KCl, 1 mM MgCl2, 2 mM CaCl2, 10 mM HEPES, 10 mM D-glucose, pH 7.35, osmolarity 290). Whole cell patch clamping was performed with a glass micropipette filled with intracellular solution (120 mM KCl, 1.75 mM MgCl2, 5.4 mM CaCl2, 10 mM HEPES, 10 mM EGTA, and 4 mM ATP-K2, PH 7.2, osmolarity 310). Giga-seal was maintained during the test. The voltage control and current measurement were carried out using Axon amplifier 700B, Digidata 1440A and CLAMPEX10 software (Molecular Devices). Whole-cell hERG currents were recorded following the Petroski protocol: the cell was held at −80 mV, and the voltage step jumped from −80 to 30 mV and stay for 2 sec with a 20 ms prepulse at −40 mV. After depolarization, the voltage was decreased to −40 mV and stay for 2 sec, and returned back to −80 mV. Test compound was applied by quartz capillary tubes tip (200 μm inner diameter), and the flow rate was controlled at 2-3 ml/min with OctaFlow perfusion system. Different concentrations of the compound were applied to the cells for 5 min and the hERG current was measured three times before, during and after compound treatment. The data were analyzed using Clampfit 10 software (Molecular Devices) to generate IC50 values.

[1] = test system: 6 Hz electrically induced seizures; experiment: 6 Hz Seizure Test; format: in vivo; conditions: for forelimb seizure score, change vs vehicle control: mice
Description: Mice were administered a rectangular current (44 mA, rectangular pulse: 0.2 ms pulse width, 3 s duration, 6 Hz) via corneal electrodes connected to a constant current shock generator (Ugo Basile: type 7801). The results for the number of seizures as reflected by forelimb clonus were recorded during the first minute following current administration. Forelimb clonus was scored as absent (0), mild (1) and strong (2). 15 mice were studied per group. The test was performed partially blind (test substance vs vehicle). […] Quantitative data (scores) with the test substance was analyzed by comparing treated groups with vehicle control using Kruskall-Wallis test followed by Mann-Whitney U tests.

[2] = test system: haloperidol-induced catalepsy; experiment: Haloperidol-Induced Catalepsy (HIC) Model; format: in vivo; conditions: rats
Description: The Haloperidol-induced Catalepsy (HIC) model detects antipsychotic activity and the action of NR2B selective antagonists (Steece-Collier et al. Exp. Neurol. 163: 239, 2000) and was based on methods described by Chermat and Simon (J. Pharmacol., 6, 493-496, 1975). The capacity to induce catalepsy serves as an index of the liability of a test substance to induce extrapyramidal side-effects, in particular Parkinsonism. Antagonism of antipsychotic-induced catalepsy can thus serve to detect anti-Parkinson potential.
Rats were injected with haloperidol (1 mg/kg i.p.) and were examined for catalepsy at 30 minute intervals up to 360 minutes. Presence (+) or absence (−) of catalepsy was assessed by three procedures: 1) imposed crossing of the ipsilateral fore- and hind-limbs; 2) placing the animal in the Buddha position; 3) the tilting board, an automatic device that, 5 seconds after positioning the rat, displaces the rat from a horizontal to vertical position and back while it clings to a wire grid with its front paws. Akinesia and catalepsy were assessed depending on whether or not the animal moves before (akinesia) or during operation of the board (catalepsy).
The 4 scores were cumulated over time to give a global catalepsy score per animal. Six rats were studied per group. The test was performed blind (test substances versus vehicle). Test substances were evaluated at 1 or more doses, administered typically using 0.5% dimethylsulfoxide, 4% hydroxypropyl-b-cyclodextrin water as a vehicle p.o. 15 minutes before haloperidol (i.e. 45 minutes before the first measurement), and compared with a vehicle control group.
Amphetamine (8 mg/kg p.o.), administered 60 minutes before the test (i.e. 90 minutes before the first measurement), was used as reference substance. Data with the test substances were analyzed by comparing treated groups with vehicle control using Kruskal-Wallis Test followed by Mann-Whitney U tests at each time and for cumulated score. Data with the reference substance were analyzed using Mann-Whitney U tests.

[3] = test system: KCl-induced cortical spreading depression; experiment: Cortical Spreading Depression (CSD), aura phase of migraine model; format: in vivo; conditions: rats
Description: The cortical spreading depression model is utilized to investigate whether treatment with compounds of the present invention affect electrophysiological and hemodynamic events in a rat model of migraine.
Rats were anesthetized with 5% isoflurane (in 70% N2O and 30% O2; flow 300 ml/min) and placed in a stereotactic frame. […] The rectal temperature was maintained at 37.0±1.0° C. with a homeothermic blanket system. The skin was opened by a medial incision and retracted laterally. Three burr holes were drilled under saline cooling over the right hemisphere at the following coordinates (mm from bregma): (1) posterior 4.5, lateral, 2.0 (occipital cortex): KCl application site; (2) posterior 0.5, lateral 2.0 (parietal cortex): LDF recording site; (3) anterior 2, lateral 2 (frontal cortex): DC potential recording site. A laser-Doppler flow probe (Oxyflow, Oxford Optronics, UK) to monitor CBF and an invasive Ag/AgCl electrode for measuring direct current (DC) potential shifts were placed in the parietal and frontal cortex burr holes on the intact dura and in the cortex, respectively. The laser-Doppler flow probe was positioned in an area free of large pial and dural vessels to minimize a large-vessel contribution to the signal. For the DC-potential measurement, a reference electrode was fixed in the neck. Dura overlying the occipital cortex was gently removed and care was taken to avoid bleeding. After surgical preparation, the cortex was allowed to recover for 15 minutes under saline irrigation. A cotton ball (2 mm diameter) soaked with 1M KCl was placed on the pial surface and kept moist by placing 5 μl of KCl solution every 15 minutes. Test compound or vehicle was administered ten (10) minutes prior to CSD initiation. […] The number of KCl-induced CSDs was counted for 2 hours. The CBF and DC-potentials were monitored continuously starting from 5 minutes before KCl exposure.
Test compound E1-1.2 was administered as a mesylate salt (mpk based on molecular weight of the mesylate salt).
The data was collected in Windaq acquisition software (Dataq Instruments, USA) at 20 kHz. The raw data was analyzed in Clampfit program (Axon Instruments, USA). The signals were low pass filtered (cut off range 5-10000 Hz) that CSD episodes in DC and CBF could be confirmed. The following parameters were analyzed: i) the number, duration and amplitude of DC-potentials, and ii) the number and amplitude of CBF events.
Doses were given as milligram per kilogram (mpk). […] Bars represent mean±Standard Error of Mean (SEM), and differences were considered to be statistically significant at the P<0.05 level (n=8, * different from vehicle group). Statistical analysis was performed using StatsDirect statistical software. Differences between groups were analyzed by using 1-way ANOVA and Dunnett's post hoc test.

[4] = E1-1.2 at various doses, MK-801 1.25 mg/kg

Sequence of hERG channel (Q12809 whole entry): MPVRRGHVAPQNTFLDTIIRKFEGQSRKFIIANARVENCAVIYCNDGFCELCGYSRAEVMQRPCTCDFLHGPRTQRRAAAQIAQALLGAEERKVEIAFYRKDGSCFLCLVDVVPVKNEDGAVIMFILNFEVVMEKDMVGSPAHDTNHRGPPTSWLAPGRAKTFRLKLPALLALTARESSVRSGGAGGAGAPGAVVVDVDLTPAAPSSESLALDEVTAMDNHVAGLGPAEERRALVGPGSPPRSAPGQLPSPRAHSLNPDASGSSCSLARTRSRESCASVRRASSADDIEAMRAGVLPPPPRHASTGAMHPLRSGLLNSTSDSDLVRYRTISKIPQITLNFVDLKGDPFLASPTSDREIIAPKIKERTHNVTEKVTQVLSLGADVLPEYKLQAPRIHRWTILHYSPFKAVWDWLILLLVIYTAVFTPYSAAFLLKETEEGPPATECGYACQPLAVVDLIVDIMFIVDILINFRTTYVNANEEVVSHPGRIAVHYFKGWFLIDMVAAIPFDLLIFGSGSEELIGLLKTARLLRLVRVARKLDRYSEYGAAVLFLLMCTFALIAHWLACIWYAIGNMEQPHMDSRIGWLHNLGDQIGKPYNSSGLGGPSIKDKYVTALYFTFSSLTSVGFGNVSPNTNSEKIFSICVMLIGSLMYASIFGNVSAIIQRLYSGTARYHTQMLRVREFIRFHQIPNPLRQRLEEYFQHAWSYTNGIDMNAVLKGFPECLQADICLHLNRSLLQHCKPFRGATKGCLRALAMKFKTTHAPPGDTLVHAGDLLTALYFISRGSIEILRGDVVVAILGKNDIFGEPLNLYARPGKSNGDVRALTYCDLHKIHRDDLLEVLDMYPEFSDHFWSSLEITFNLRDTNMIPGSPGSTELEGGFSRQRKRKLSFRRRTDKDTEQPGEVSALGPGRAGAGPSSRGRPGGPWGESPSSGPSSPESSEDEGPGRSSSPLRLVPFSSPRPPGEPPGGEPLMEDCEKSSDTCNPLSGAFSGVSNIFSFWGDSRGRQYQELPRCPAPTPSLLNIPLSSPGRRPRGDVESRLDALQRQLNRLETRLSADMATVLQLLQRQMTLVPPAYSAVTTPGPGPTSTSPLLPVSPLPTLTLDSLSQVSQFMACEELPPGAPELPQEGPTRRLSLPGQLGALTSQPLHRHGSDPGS

Cc1ccc(COC(=O)N2CC[C@H](CNc3nccn4cnnc34)C(F)(F)C2)cc1 [Compound E1-1.2, (+)-R-4-methylbenzyl 4-(([1,2,4]triazolo[4,3-a]pyrazin-8-ylamino)methyl)-3,3-difluoropiperidine-1-carboxylate]
hERG @ 10 μM (%) (hERG channel; 10 μM): 17%
IC50 (hERG channel; HEK293, whole cell patch clamp): 40 µM
number of mice with Straub tail, change vs vehicle control ([1]; 10 mg/kg p.o., NS): −13%
number of mice with Straub tail, change vs vehicle control ([1]; 30 mg/kg p.o.): −40%
forelimb seizure score, change vs vehicle control ([1]; 10 mg/kg p.o. 30 minutes before the test): −50%
forelimb seizure score, change vs vehicle control ([1]; 30 mg/kg p.o. 30 minutes before the test): −70%
cumulated score of catalepsy over 360 mins ([2]; 1 mg/kg p.o.): 17.0
cumulated score of catalepsy over 360 mins ([2]; 3 mg/kg p.o.): 15.8
cumulated score of catalepsy over 360 mins ([2]; p.o., dose not printed in the sentence (other doses 1 and 3 mg/kg)): 2.0
magnitude of CBF vs vehicle [3]: unchanged
number of DC potentials vs vehicle ([3]; 3 mpk, 10 mpk and 30 mpk, mesylate salt): significantly decreased
number of CBF events vs vehicle ([3]; E1-1.2 at 10 mg/kg, MK-801 at 1.25 mg/kg): decreased
amplitude of DC potentials vs vehicle [3, 4]: not statistically different
duration of DC potentials vs vehicle [3, 4]: not statistically different
